Experimental data published in patent US10676504B2 (Colorado State University Research Foundation, priority 2015, dated 2020).
Read-outs that look alike come from different tables or passages of the source.

What was measured:
[1] = system: renal cancer cell lines; assay: NCI 60 one-dose screen; assay type: cell-based; details: of the 6 renal
[2] = system: renal cancer cell lines
Text: (§1) All compounds submitted for screening were initially tested at a single high dose (10^-5 M) against the fill NCI 60 cell panel. Only compounds which satisfied pre-determined threshold inhibition criteria in a minimum number of cell lines progressed to a second round of testing utilizing a more comprehensive 5-dose inhibition assay. The threshold inhibition criteria for progression to the 5-dose assays were selected to efficiently capture compounds with anti-proliferative activity based on historical DTP screening data.
(§2) Concentrations for G150, IC50, TGI, and LC50 were calculated for all cell lines tested, and heat plots were prepared.

[3] = system: ovarian cancer cell lines
Text: as §1, §2

[4] = system: colon cancer cell lines; assay: NCI 60 one-dose screen; assay type: cell-based; details: of the 7 colon
[5] = system: CNS cancer cell lines; assay: NCI 60 one-dose screen; assay type: cell-based; details: of the 6 CNS
[6] = system: breast cancer cells lines; assay: NCI 60 one-dose screen; assay type: cell-based; details: of the 6 breast
[7] = system: NCI 60 cell panel; assay type: cell-based; details: one-dose
Text: A) Eight compounds were submitted to the National Cancer Institute (NCI) 60 tumor cell line drug discovery program (DTP) for anticancer screening.
as §1

[8] = system: ovarian cancer cell lines; assay: NCI 60 one-dose screen; assay type: cell-based; details: of the 7 ovarian
[9] = system: non-small cell lung cancer cell lines; assay: NCI 60 one-dose screen; assay type: cell-based; details: of the 9 cell lines
[10] = system: renal cancer cell lines; assay: cells; details: read-out: Average Concentration (M), LC50, Renal
Text: as §1, §2

[11] = system: colon cancer cell lines
Text: as §1, §2

[12] = system: colon cancer cell lines; assay: cells; details: read-out: Average Concentration (M), LC50, Colon
Text: as §1, §2

[13] = system: NCI-60 cancer cell lines; assay: cells
Text: as §1, §2

[14] = system: NCI-60 cancer cell lines; details: five-dose
Text: as §1, §2

[15] = system: CNS cancer cell lines; assay: cells; details: read-out: Average Concentration (M), LC50, CNS
Text: as §1, §2

[16] = system: melanoma cell lines; assay: cells; details: read-out: Average Concentration (M), LC50, Melanoma
[17] = system: melanoma cell lines; assay: NCI 60 one-dose screen; assay type: cell-based
[18] = system: CNS cancer cell lines
Text: as §1, §2

[19] = system: ovarian cancer cell lines; assay: cells; details: read-out: Average Concentration (M), LC50, Ovarian
Text: as §1, §2

[20] = system: melanoma cell lines

## CCCCCCCC(=O)SCC/C=C/[C@@H]1CC(=O)NCc2nc(co2)C2=N[C@@](C)(CS2)C(=O)N[C@@H](C(C)C)C(=O)O1 [compound of formula D]
[1]
  cell lines with some level of lethality: 4
[2]
  Total Impacted Cell Lines (n), LC50, Renal: 2
[2]; five-dose
  Percent of Cell Lines Impacted (%), LC50, Renal: 25%
[3]
  Total Impacted Cell Lines (n), LC50, Ovarian: 1
[3]; five-dose
  Percent of Cell Lines Impacted (%), LC50, Ovarian: 14%
[4]
  cell lines with some level of lethality: 4
[5]
  cell lines with some level of lethality: 2
[6]
  cell lines with some level of lethality: 3
[7]; 58 cell lines tested
  percent of NCI cell lines with some level of lethality: 55%
[7]; of 58 cell lines tested
  NCI cell lines with some level of lethality: 32
[8]
  cell lines with some level of lethality: 4
[9]
  cell lines with some level of lethality: 7
[10]
  CC50: 1.17e-05 M
[11]
  Total Impacted Cell Lines (n), LC50, Colon: 2
[11]; five-dose
  Percent of Cell Lines Impacted (%), LC50, Colon: 29%
[12]
  CC50: 1.47e-06 M
[13]; read-out: Average Concentration (M), GI50
  GI50: 3.83e-08 M
[13]; read-out: Average Concentration (M), LC50
  CC50: 5.48e-06 M
[13]; read-out: GI50 concentrations (M), order of magnitude
  GI50: 1e-08 M
[13]; read-out: LC50 concentrations, order of magnitude
  CC50: 1e-06 M
[14]; 50% Growth Inhibition
  Percent of Cell Lines Impacted (%), GI50: 100%
[14]; 50% Lethal Concentration reached
  Percent of Cell Lines Impacted (%), LC50: 16%
[14]; Total Growth Inhibition
  Percent of Cell Lines Impacted (%), TGI: 67%
  Total Impacted Cell Lines (n), TGI: 38
[14]; average over impacted cell lines
  Average Concentration (M), TGI: 4.57e-06 M
[15]
  CC50: 1.95e-05 M
[16]
  CC50: 3.72e-07 M
[17]; one-dose studies
  lethality in select melanoma cell lines: > 90%
[17]; one-dose, of the 9 melanoma
  cell lines with some level of lethality: 8
[18]
  Total Impacted Cell Lines (n), LC50, CNS: 1
[18]; five-dose
  Percent of Cell Lines Impacted (%), LC50, CNS: 20%
[19]
  CC50: 2.34e-06 M
[20]
  Total Impacted Cell Lines (n), LC50, Melanoma: 3
[20]; five-dose
  Percent of Cell Lines Impacted (%), LC50, Melanoma: 38%
